Assay results: patent US6355799B1, “Substituted benzene compounds, process for their preparation, and herbicidal and defoliant compositions containing them” (ISK Americas Incorporated, priority 1997, dated 2002)

What was measured:
Format in all cases: in vivo
[1] = system: upland rice (Oryza sp., var. Tebonnet, RICE); assay: Post-emerge test, crop safety; conditions: for Post-emerge Herbicidal Activity RICE (crop damage): phytotoxicity rating 0-100 (0 no damage, 100 complete death), 14 days after application; for Post-emerge Herbicidal Activity RICE: crop damage rating 0-100 at 14 days after application
Summary of the method: (§1)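 Applied at 15–1000 g ai/ha from acetone in 187 l/ha spray volume. Post-emergence applications included 0.25% v/v non-ionic surfactant and reached plants sown 8–21 days before. Pre-emergence applications were incorporated by surface watering. Efficacy or crop damage was rated on a 0–100 scale after 14 days.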

[2] = system: field corn (Zea mays L., var. Dekalb 535, CORN); assay: Post-emerge test, crop safety; conditions: for Post-emerge Herbicidal Activity CORN (crop damage): phytotoxicity rating 0-100 (0 no damage, 100 complete death), 14 days after application; for Post-emerge Herbicidal Activity CORN: crop damage rating 0-100 at 14 days after application
Summary of the method: as §1

[3] = system: upland rice (Oryza sp., var. Tebonnet, RICE); assay: Pre-emerge test, crop safety; conditions: pre-emerge; for Pre-emerge crop damage RICE (phytotoxicity rating, scale 0-100): rated 14 days after application, 0 = no damage, 100 = complete death; for Pre-emerge Herbicidal Activity RICE: crop damage, phytotoxicity rating 0-100 at 14 days after application
Summary of the method: (§2)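 Herbicidal damage is scored 0 (none) to 100 (complete plant death) two weeks after a simulated field spray. Rates span 15–1000 g ai/ha, delivered in acetone at 187 l/ha. For post-emergence treatments, plants have 2–3 leaves and the spray carries 0.25% v/v non-ionic surfactant.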

[4] = system: field corn (Zea mays L., var. Dekalb 535, CORN); assay: Pre-emerge test, crop safety; conditions: pre-emerge; for Pre-emerge crop damage CORN (phytotoxicity rating, scale 0-100): rated 14 days after application, 0 = no damage, 100 = complete death; for Pre-emerge Herbicidal Activity CORN: crop damage, phytotoxicity rating 0-100 at 14 days after application
Summary of the method: as §2

[5] = system: redroot pigweed (Amaranthus retroflexus, AMARE); assay: Pre-emerge test, greenhouse herbicide activity screening; conditions: pre-emerge; for Pre-emerge Herbicidal Activity AMARE (phytotoxicity rating, scale 0-100): rated 14 days after application, 0 = no damage, 100 = complete death; for Pre-emerge Herbicidal Activity AMARE: phytotoxicity rating 0-100 at 14 days after application
Summary of the method: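 Plants grown in 10 cm pots of sandy loam mix received acetone-dissolved compounds through a moving flat-fan nozzle. Doses ranged from 15 to 1000 g ai/ha. Pre-emerge pots were seeded one day earlier, post-emerge pots 8–21 days earlier. Fourteen days on, each pot was graded 0–100 for damage.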

[6] = system: sicklepod (Cassia obtusifolia, CASOB); assay: as above; conditions: pre-emerge; for Pre-emerge Herbicidal Activity CASOB (phytotoxicity rating, scale 0-100): rated 14 days after application, 0 = no damage, 100 = complete death; for Pre-emerge Herbicidal Activity CASOB: phytotoxicity rating 0-100 at 14 days after application
Summary of the method: as §1

[7] = system: green foxtail (Setaria viridis, SETVI); assay: as above; conditions: pre-emerge; for Pre-emerge Herbicidal Activity SETVI (phytotoxicity rating, scale 0-100): rated 14 days after application, 0 = no damage, 100 = complete death; for Pre-emerge Herbicidal Activity SETVI: phytotoxicity rating 0-100 at 14 days after application
Summary of the method: as §1

[8] = system: large crabgrass (Digitaria sanguinalis, DIGSA); assay: as above; conditions: pre-emerge; for Pre-emerge Herbicidal Activity DIGSA (phytotoxicity rating, scale 0-100): rated 14 days after application, 0 = no damage, 100 = complete death; for Pre-emerge Herbicidal Activity DIGSA: phytotoxicity rating 0-100 at 14 days after application
Summary of the method: as §1

[9] = system: johnsongrass (Sorghum halepense, SORHA); assay: as above; conditions: pre-emerge; for Pre-emerge Herbicidal Activity SORHA (phytotoxicity rating, scale 0-100): rated 14 days after application, 0 = no damage, 100 = complete death; for Pre-emerge Herbicidal Activity SORHA: phytotoxicity rating 0-100 at 14 days after application
Summary of the method: as §1

[10] = system: lambsquarters (Chenopodium album, CHEAL); assay: as above; conditions: pre-emerge; for Pre-emerge Herbicidal Activity CHEAL (phytotoxicity rating, scale 0-100): rated 14 days after application, 0 = no damage, 100 = complete death; for Pre-emerge Herbicidal Activity CHEAL: phytotoxicity rating 0-100 at 14 days after application
Summary of the method: as §1

[11] = system: velvetleaf (Abutilon theophrasti, ABUTH); assay: as above; conditions: pre-emerge; for Pre-emerge Herbicidal Activity ABUTH (phytotoxicity rating, scale 0-100): rated 14 days after application, 0 = no damage, 100 = complete death; for Pre-emerge Herbicidal Activity ABUTH: phytotoxicity rating 0-100 at 14 days after application
Summary of the method: as §1

[12] = system: barnyardgrass (Echinochloa crus-galli, ECHCG); assay: as above; conditions: pre-emerge; for Pre-emerge Herbicidal Activity ECHCG (phytotoxicity rating, scale 0-100): rated 14 days after application, 0 = no damage, 100 = complete death; for Pre-emerge Herbicidal Activity ECHCG: phytotoxicity rating 0-100 at 14 days after application
Summary of the method: as §1

[13] = system: ivyleaf morningglory (Ipomoea hederacea, IPOHE); assay: as above; conditions: pre-emerge; for Pre-emerge Herbicidal Activity IPOHE (phytotoxicity rating, scale 0-100): rated 14 days after application, 0 = no damage, 100 = complete death; for Pre-emerge Herbicidal Activity IPOHE: phytotoxicity rating 0-100 at 14 days after application
Summary of the method: as §1

[14] = system: sicklepod (Cassia obtusifolia, CASOB); assay: Post-emerge test, greenhouse herbicide activity screening
Summary of the method: as §2

[15] = system: green foxtail (Setaria viridis, SETVI); assay: as above
Summary of the method: as §2

[16] = system: large crabgrass (Digitaria sanguinalis, DIGSA); assay: as above
Summary of the method: as §2

[17] = system: redroot pigweed (Amaranthus retroflexus, AMARE); assay: as above
Summary of the method: as §2

[18] = system: johnsongrass (Sorghum halepense, SORHA); assay: as above
Summary of the method: as §2

[19] = system: lambsquarters (Chenopodium album, CHEAL); assay: as above
Summary of the method: as §2

[20] = system: velvetleaf (Abutilon theophrasti, ABUTH); assay: as above
Summary of the method: as §2

[21] = system: barnyardgrass (Echinochloa crus-galli, ECHCG); assay: as above
Summary of the method: as §2

[22] = system: ivyleaf morningglory (Ipomoea hederacea, IPOHE); assay: as above
Summary of the method: as §2

[23] = 63 g ai/ha, phytotoxicity rating 0-100 (0 no damage, 100 complete death), 14 days after application
[24] = 250 g ai/ha, phytotoxicity rating 0-100 (0 no damage, 100 complete death), 14 days after application
[25] = post-emerge, 63 g ai/ha, phytotoxicity rating 0-100 at 14 days after application
[26] = post-emerge, 250 g ai/ha, phytotoxicity rating 0-100 at 14 days after application

Cn1c(C(F)(F)F)cc(=O)n(-c2c(F)cc(Cl)c(OCC#N)c2N)c1=O [Compound 1-18]
Post-emerge Herbicidal Activity RICE (crop damage) ([1]; 63 g ai/ha): 0 | Post-emerge Herbicidal Activity RICE (crop damage) ([1]; 250 g ai/ha): 0 | Post-emerge Herbicidal Activity CORN (crop damage) ([2]; 63 g ai/ha): 0 | Post-emerge Herbicidal Activity CORN (crop damage) ([2]; 250 g ai/ha): 0 | Pre-emerge crop damage RICE (phytotoxicity rating, scale 0-100) ([3]; 63 g ai/ha): 30 | Pre-emerge crop damage RICE (phytotoxicity rating, scale 0-100) ([3]; 250 g ai/ha): 70 | Pre-emerge crop damage CORN (phytotoxicity rating, scale 0-100) ([4]; 63 g ai/ha): 40 | Pre-emerge crop damage CORN (phytotoxicity rating, scale 0-100) ([4]; 250 g ai/ha): 90 | Pre-emerge Herbicidal Activity AMARE (phytotoxicity rating, scale 0-100) ([5]; 63 g ai/ha): 100 | Pre-emerge Herbicidal Activity AMARE (phytotoxicity rating, scale 0-100) ([5]; 250 g ai/ha): 100 | Pre-emerge Herbicidal Activity CASOB (phytotoxicity rating, scale 0-100) ([6]; 63 g ai/ha): 70 | Pre-emerge Herbicidal Activity CASOB (phytotoxicity rating, scale 0-100) ([6]; 250 g ai/ha): 100 | Pre-emerge Herbicidal Activity SETVI (phytotoxicity rating, scale 0-100) ([7]; 63 g ai/ha): 95 | Pre-emerge Herbicidal Activity SETVI (phytotoxicity rating, scale 0-100) ([7]; 250 g ai/ha): 99 | Pre-emerge Herbicidal Activity DIGSA (phytotoxicity rating, scale 0-100) ([8]; 63 g ai/ha): 70 | Pre-emerge Herbicidal Activity DIGSA (phytotoxicity rating, scale 0-100) ([8]; 250 g ai/ha): 90 | Pre-emerge Herbicidal Activity SORHA (phytotoxicity rating, scale 0-100) ([9]; 63 g ai/ha): 70 | Pre-emerge Herbicidal Activity SORHA (phytotoxicity rating, scale 0-100) ([9]; 250 g ai/ha): 100 | Pre-emerge Herbicidal Activity CHEAL (phytotoxicity rating, scale 0-100) ([10]; 63 g ai/ha): 100 | Pre-emerge Herbicidal Activity CHEAL (phytotoxicity rating, scale 0-100) ([10]; 250 g ai/ha): 100 | Pre-emerge Herbicidal Activity ABUTH (phytotoxicity rating, scale 0-100) ([11]; 63 g ai/ha): 100 | Pre-emerge Herbicidal Activity ABUTH (phytotoxicity rating, scale 0-100) ([11]; 250 g ai/ha): 100 | Pre-emerge Herbicidal Activity ECHCG (phytotoxicity rating, scale 0-100) ([12]; 63 g ai/ha): 0 | Pre-emerge Herbicidal Activity ECHCG (phytotoxicity rating, scale 0-100) ([12]; 250 g ai/ha): 80 | Pre-emerge Herbicidal Activity IPOHE (phytotoxicity rating, scale 0-100) ([13]; 63 g ai/ha): 100 | Pre-emerge Herbicidal Activity IPOHE (phytotoxicity rating, scale 0-100) ([13]; 250 g ai/ha): 100 | Post-emerge Herbicidal Activity CASOB [14, 23]: 30 | Post-emerge Herbicidal Activity CASOB [14, 24]: 95 | Post-emerge Herbicidal Activity SETVI [15, 23]: 70 | Post-emerge Herbicidal Activity SETVI [15, 24]: 70 | Post-emerge Herbicidal Activity DIGSA [16, 23]: 50 | Post-emerge Herbicidal Activity DIGSA [16, 24]: 50 | Post-emerge Herbicidal Activity AMARE [17, 23]: 70 | Post-emerge Herbicidal Activity AMARE [17, 24]: 100 | Post-emerge Herbicidal Activity SORHA [18, 23]: 50 | Post-emerge Herbicidal Activity SORHA [18, 24]: 50 | Post-emerge Herbicidal Activity CHEAL [19, 23]: 70 | Post-emerge Herbicidal Activity CHEAL [19, 24]: 100 | Post-emerge Herbicidal Activity ABUTH [20, 23]: 100 | Post-emerge Herbicidal Activity ABUTH [20, 24]: 100 | Post-emerge Herbicidal Activity ECHCG [21, 23]: 0 | Post-emerge Herbicidal Activity ECHCG [21, 24]: 0 | Post-emerge Herbicidal Activity IPOHE [22, 23]: 80 | Post-emerge Herbicidal Activity IPOHE [22, 24]: 100

C#CCOc1c(Cl)cc(F)c(N2C(=O)C3=C(CCCC3)C2=O)c1N [Compound 8-3, N-(2-amino-4-chloro-6-fluoro-3-propargyloxyphenyl)tetrahydrophthalimide]
Post-emerge Herbicidal Activity RICE ([1]; 63 g ai/ha): 20 | Post-emerge Herbicidal Activity RICE ([1]; 250 g ai/ha): 80 | Post-emerge Herbicidal Activity CORN ([2]; 63 g ai/ha): 0 | Post-emerge Herbicidal Activity CORN ([2]; 250 g ai/ha): 0 | Pre-emerge Herbicidal Activity RICE ([3]; rate 63 g ai/ha): 0 | Pre-emerge Herbicidal Activity RICE ([3]; rate 250 g ai/ha): 0 | Pre-emerge Herbicidal Activity CORN ([4]; rate 63 g ai/ha): 10 | Pre-emerge Herbicidal Activity CORN ([4]; rate 250 g ai/ha): 0 | Pre-emerge Herbicidal Activity AMARE ([5]; rate 63 g ai/ha): 99 | Pre-emerge Herbicidal Activity AMARE ([5]; rate 250 g ai/ha): 100 | Pre-emerge Herbicidal Activity CASOB ([6]; rate 63 g ai/ha): 30 | Pre-emerge Herbicidal Activity CASOB ([6]; rate 250 g ai/ha): 50 | Pre-emerge Herbicidal Activity SETVI ([7]; rate 63 g ai/ha): 95 | Pre-emerge Herbicidal Activity SETVI ([7]; rate 250 g ai/ha): 98 | Pre-emerge Herbicidal Activity DIGSA ([8]; rate 63 g ai/ha): 30 | Pre-emerge Herbicidal Activity DIGSA ([8]; rate 250 g ai/ha): 60 | Pre-emerge Herbicidal Activity SORHA ([9]; rate 63 g ai/ha): 20 | Pre-emerge Herbicidal Activity SORHA ([9]; rate 250 g ai/ha): 30 | Pre-emerge Herbicidal Activity CHEAL ([10]; rate 63 g ai/ha): 99 | Pre-emerge Herbicidal Activity CHEAL ([10]; rate 250 g ai/ha): 100 | Pre-emerge Herbicidal Activity ABUTH ([11]; rate 63 g ai/ha): 98 | Pre-emerge Herbicidal Activity ABUTH ([11]; rate 250 g ai/ha): 100 | Pre-emerge Herbicidal Activity ECHCG ([12]; rate 63 g ai/ha): 0 | Pre-emerge Herbicidal Activity ECHCG ([12]; rate 250 g ai/ha): 10 | Pre-emerge Herbicidal Activity IPOHE ([13]; rate 63 g ai/ha): 30 | Pre-emerge Herbicidal Activity IPOHE ([13]; rate 250 g ai/ha): 10 | Post-emerge Herbicidal Activity CASOB [14, 25]: 0 | Post-emerge Herbicidal Activity CASOB [14, 26]: 50 | Post-emerge Herbicidal Activity SETVI [15, 25]: 0 | Post-emerge Herbicidal Activity SETVI [15, 26]: 70 | Post-emerge Herbicidal Activity DIGSA [16, 25]: 0 | Post-emerge Herbicidal Activity DIGSA [16, 26]: 0 | Post-emerge Herbicidal Activity AMARE [17, 25]: 90 | Post-emerge Herbicidal Activity AMARE [17, 26]: 100 | Post-emerge Herbicidal Activity SORHA [18, 25]: 0 | Post-emerge Herbicidal Activity SORHA [18, 26]: 20 | Post-emerge Herbicidal Activity CHEAL [19, 25]: 70 | Post-emerge Herbicidal Activity CHEAL [19, 26]: 90 | Post-emerge Herbicidal Activity ABUTH [20, 25]: 90 | Post-emerge Herbicidal Activity ABUTH [20, 26]: 100 | Post-emerge Herbicidal Activity ECHCG [21, 25]: 0 | Post-emerge Herbicidal Activity ECHCG [21, 26]: 0 | Post-emerge Herbicidal Activity IPOHE [22, 25]: 40 | Post-emerge Herbicidal Activity IPOHE [22, 26]: 60
